The target in this assay is T1, Human TRPC6 (Homo sapiens, UniProt Q9Y210).
T1 construct: expressed in transfected cells
T1 sequence (Q9Y210 1-931): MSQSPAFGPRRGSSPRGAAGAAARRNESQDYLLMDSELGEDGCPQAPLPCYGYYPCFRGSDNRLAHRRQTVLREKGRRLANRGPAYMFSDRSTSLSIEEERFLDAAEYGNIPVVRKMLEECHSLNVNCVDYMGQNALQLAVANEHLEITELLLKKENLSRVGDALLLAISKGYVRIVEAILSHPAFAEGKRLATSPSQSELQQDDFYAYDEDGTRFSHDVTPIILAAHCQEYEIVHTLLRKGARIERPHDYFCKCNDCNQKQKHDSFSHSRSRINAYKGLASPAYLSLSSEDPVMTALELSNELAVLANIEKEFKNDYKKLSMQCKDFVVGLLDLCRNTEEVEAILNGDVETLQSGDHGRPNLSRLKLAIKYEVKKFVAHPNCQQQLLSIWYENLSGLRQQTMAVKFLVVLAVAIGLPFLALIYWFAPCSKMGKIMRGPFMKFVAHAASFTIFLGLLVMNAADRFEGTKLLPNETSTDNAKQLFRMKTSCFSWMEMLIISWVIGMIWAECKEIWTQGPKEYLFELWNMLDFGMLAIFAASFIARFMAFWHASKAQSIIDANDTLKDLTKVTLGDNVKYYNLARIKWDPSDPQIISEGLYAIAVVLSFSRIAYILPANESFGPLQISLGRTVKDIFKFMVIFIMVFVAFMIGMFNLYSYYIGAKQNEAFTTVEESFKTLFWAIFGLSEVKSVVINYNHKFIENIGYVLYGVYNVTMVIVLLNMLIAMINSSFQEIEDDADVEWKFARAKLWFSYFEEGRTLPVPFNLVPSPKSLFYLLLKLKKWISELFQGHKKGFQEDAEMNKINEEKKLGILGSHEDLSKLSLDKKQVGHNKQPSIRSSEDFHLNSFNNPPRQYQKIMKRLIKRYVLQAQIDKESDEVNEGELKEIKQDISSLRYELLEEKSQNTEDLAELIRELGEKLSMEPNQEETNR
Nature of the assay: Evaluation of TRPC6 channel inhibitory activity (1), FLIPR Calcium 5 Assay Kit, OAG stimulation (Compound Nos. 1-1293). Particulars: Human TRPC6 stably-expressing cells, OAG 30 μM, FLIPR Calcium 5 Assay Kit; read-out: Inhibitory activity (pIC50 class) (converted). It counts as cell-based. The gist of the method:
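Calcium influx read by FLIPR fluorescence in cells stably expressing human TRPC6, dye-loaded 30 min. Compounds preincubated 20 min, then OAG stimulation at 30 μM final. Inhibition fitted by four-parameter logistic regression to give pIC50, reported as +/++/+++ categories.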

As for `CCc1cc(Oc2cc(C#N)ccc2-c2ncc(CN)cn2)n(C)n1` [compound 324, 4-[5-(aminomethyl)pyrimidin-2-yl]-3-(5-ethyl-2-methylpyrazol-3-yl)oxybenzonitrile], the IC50 is less than 10 nM.
`Cn1nc(C2CC2)cc1Oc1cc(C#N)ccc1-c1ncc(CN)cn1` [compound 325, 4-[5-(aminomethyl)pyrimidin-2-yl]-3-(5-cyclopropyl-2-methylpyrazol-3-yl)oxybenzonitrile]: the IC50 was less than 10 nM.
The result for `CCc1cc(Oc2cc(C#N)ccc2-c2ccc(CN)cn2)n(C)n1` [compound 326, 4-[5-(aminomethyl)pyridin-2-yl]-3-(5-ethyl-2-methylpyrazol-3-yl)oxybenzonitrile] reads less than 10 nM; that for `Cn1nc(C2CC2)cc1Oc1cc(C#N)ccc1-c1ccc(CN)cn1` [compound 327, 4-[5-(aminomethyl)pyridin-2-yl]-3-(5-cyclopropyl-2-methylpyrazol-3-yl)oxybenzonitrile], less than 10 nM; that for `Cc1cc(Oc2cc(C#N)ccc2-c2ncc(CN)cn2)cc(N2CCOCC2)n1` [compound 328, 4-[5-(aminomethyl)pyrimidin-2-yl]-3-(2-methyl-6-morpholin-4-ylpyridin-4-yl)oxybenzonitrile], less than 10 nM.
With `Cc1cc(Oc2cc(C#N)ccc2-c2ccc(CN)cn2)cc(N2CCOCC2)n1` [compound 329, 4-[5-(aminomethyl)pyridin-2-yl]-3-(2-methyl-6-morpholin-4-ylpyridin-4-yl)oxybenzonitrile], the IC50 was less than 10 nM.
On to `CCc1cc(Oc2cc(C#N)ccc2-c2ccc(CN)nc2)n(C)n1` [compound 330, 4-[6-(aminomethyl)pyridin-3-yl]-3-(5-ethyl-2-methylpyrazol-3-yl)oxybenzonitrile], for which the IC50 was more than 1000 nM.
With `Cn1nc(C2CC2)cc1Oc1cc(C#N)ccc1-c1ccc(CN)nc1` [compound 331, 4-[6-(aminomethyl)pyridin-3-yl]-3-(5-cyclopropyl-2-methylpyrazol-3-yl)oxybenzonitrile], the IC50 is 10 to 1000 nM.
The same measure for `Cc1cc(Oc2cc(C#N)ccc2-c2cnc(CN)cn2)cc(N2CCOCC2)n1` [compound 332, 4-[5-(aminomethyl)pyrazin-2-yl]-3-(2-methyl-6-morpholin-4-ylpyridin-4-yl)oxybenzonitrile]: 10 to 1000 nM.
The same measure for `Cc1cc(Oc2cc(C#N)ccc2-c2ccc(CC(C)(C)N)cn2)cc(N2CCOCC2)n1` [compound 333, 4-[5-(2-amino-2-methylpropyl)pyridin-2-yl]-3-(2-methyl-6-morpholin-4-ylpyridin-4-yl)oxybenzonitrile]: less than 10 nM.
For the molecule `Cn1nc(C2CC2)cc1Oc1cc(C#N)ccc1-c1ccc(CC(C)(C)N)cn1` [compound 334, 4-[5-(2-amino-2-methylpropyl)pyridin-2-yl]-3-(5-cyclopropyl-2-methylpyrazol-3-yl)oxybenzonitrile], the IC50 is less than 10 nM.
As to `Cn1nc(C2CC2)cc1Oc1cc(C#N)ccc1-c1ccc(C(O)C(C)(C)N)cn1` (centres unmarked) [compound 335, 4-[5-(2-amino-1-hydroxy-2-methylpropyl)pyridin-2-yl]-3-(5-cyclopropyl-2-methylpyrazol-3-yl)oxybenzonitrile], the IC50 was less than 10 nM.
Consider `CCCCc1cc(Oc2cc(C#N)ccc2-c2ccc(C(O)C(C)(C)N)cn2)n(C)n1` (centres unmarked) [compound 336, 4-[5-(2-amino-1-hydroxy-2-methylpropyl)pyridin-2-yl]-3-(5-butyl-2-methylpyrazol-3-yl)oxybenzonitrile], for which the IC50 is less than 10 nM.
`CCCCc1cc(Oc2cc(C#N)ccc2-c2ncc(C(O)CN)cn2)n(C)n1` (centres unmarked) [compound 337, 4-[5-(2-amino-1-hydroxyethyl)pyrimidin-2-yl]-3-(5-butyl-2-methylpyrazol-3-yl)oxybenzonitrile]: the IC50 is less than 10 nM.
The same measure for `Cn1nc(-c2ccccn2)cc1Oc1cc(C#N)ccc1-c1ccc(CC(C)(C)N)cn1` [compound 338, 4-[5-(2-amino-2-methylpropyl)pyridin-2-yl]-3-(2-methyl-5-pyridin-2-ylpyrazol-3-yl)oxybenzonitrile]: less than 10 nM; for `Cc1nc(Oc2cc(C#N)ccc2-n2cc([C@@H](O)CN)cn2)cc(-c2ccccc2F)n1` [compound 339, 4-[4-[(1R)-2-amino-1-hydroxyethyl]pyrazol-1-yl]-3-[6-(2-fluorophenyl)-2-methylpyrimidin-4-yl]oxybenzonitrile]: 10 to 1000 nM; for `Cc1nc(Oc2cc(C#N)ccc2-n2cc([C@@H](O)CN)cn2)cc(-c2ccccc2Cl)n1` [compound 340, 4-[4-[(1R)-2-amino-1-hydroxyethyl]pyrazol-1-yl]-3-[6-(2-chlorophenyl)-2-methylpyrimidin-4-yl]oxybenzonitrile]: 10 to 1000 nM.
Regarding `Cc1nc(Oc2cc(C#N)ccc2-n2cc([C@@H](O)CN)cn2)cc(-c2ccccc2C#N)n1` [compound 341, 4-[4-[(1R)-2-amino-1-hydroxyethyl]pyrazol-1-yl]-3-[6-(2-cyanophenyl)-2-methylpyrimidin-4-yl]oxybenzonitrile], the IC50 was less than 10 nM.
For `Cc1nc(Oc2cc(C#N)ccc2-n2cc([C@H](O)CN)cn2)cc(-c2ccccc2F)n1` [compound 342, 4-[4-[(1S)-2-amino-1-hydroxyethyl]pyrazol-1-yl]-3-[6-(2-fluorophenyl)-2-methylpyrimidin-4-yl]oxybenzonitrile], the IC50 was 10 to 1000 nM.
Regarding `Cc1nc(Oc2cc(C#N)ccc2-n2cc([C@H](O)CN)cn2)cc(-c2ccccc2Cl)n1` [compound 343, 4-[4-[(1S)-2-amino-1-hydroxyethyl]pyrazol-1-yl]-3-[6-(2-chlorophenyl)-2-methylpyrimidin-4-yl]oxybenzonitrile], the IC50 was 10 to 1000 nM.
As to `Cc1nc(Oc2cc(C#N)ccc2-n2cc([C@H](O)CN)cn2)cc(-c2ccccc2C#N)n1` [compound 344, 4-[4-[(1S)-2-amino-1-hydroxyethyl]pyrazol-1-yl]-3-[6-(2-cyanophenyl)-2-methylpyrimidin-4-yl]oxybenzonitrile], the IC50 was less than 10 nM.
Take `CCc1cc(Oc2cc(C#N)ccc2-c2ccc(OCCN)cn2)n(C)n1` [compound 345, 4-[5-(2-aminoethoxy)pyridin-2-yl]-3-(5-ethyl-2-methylpyrazol-3-yl)oxybenzonitrile]: the IC50 is 10 to 1000 nM.
The same measure for `Cn1nc(-c2ccccc2)cc1Oc1cc(C#N)ccc1-c1cnc(CCN)nc1` [compound 346, 4-[2-(2-aminoethyl)pyrimidin-5-yl]-3 (2-methyl-5-phenylpyrazol-3-yl)oxybenzonitrile]: less than 10 nM.
Take `Cn1nc(C2CC2)cc1Oc1cc(C#N)ccc1-c1cnc(CCN)nc1` [compound 347, 4-[2-(2-aminoethyl)pyrimidin-5-yl]-3-(5-cyclopropyl-2-methylpyrazol-3 yl)oxybenzonitrile]: the IC50 is more than 1000 nM.
For the molecule `Cn1nc(C2CC2)cc1Oc1cc(C#N)ccc1-c1ccc(OCCN)cn1` [compound 348, 4-[5-(2-aminoethoxy)pyridin-2-yl]-3-(5-cyclopropyl-2-methylpyrazol-3-yl)oxybenzonitrile], the IC50 is less than 10 nM.
Regarding `Cc1cc(Oc2cc(C#N)ccc2-c2ccc(OCCN)cn2)n(C)n1` [compound 349, 4-[5-(2-aminoethoxy)pyridin-2-yl]-3-(2,5-dimethylpyrazol-3-yl)oxybenzonitrile], the IC50 was more than 1000 nM.

Source of the values: patent US20230167073A1 (Teijin Pharma Limited, priority 2020, published 2023).
